The source of these data is US20230002359A1, “PESTICIDALLY ACTIVE FUSED BICYCLIC HETEROAROMATIC COMPOUNDS” (priority 2019, published 2023).

The subject of data set [1] is Chilo suppressalis (Striped Rice Stemborer). Description: Example B3: Chilo suppressalis (striped rice stemborer), artificial diet, L2 larvae. The format is in vivo. The note with it: 144 h, application rate of 200 ppm, 6 days after infestation, L2 larvae, read-out: control in at least one of the three categories (mortality, anti-feedant effect, or growth inhibition). The gist of the method:
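Artificial diet treated with aqueous dilutions of DMSO stocks (10'000 ppm stock), dried, then infested with 6-8 L2 larvae per well. Mortality, anti-feeding and growth inhibition scored against untreated samples 6 days after infestation. Control counted when any category exceeds untreated.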

Data set [2] relates to Spodoptera littoralis (Egyptian Cotton Leaf Worm). Description: Example B7: Spodoptera littoralis (Egyptian cotton leaf worm), cotton leaf discs sprayed, L1 larvae. The following applies: foliar, 72 h, application rate of 200 ppm, 3 days after infestation, L1 larvae, read-out: control in at least one of the three categories (mortality, anti-feedant effect, or growth inhibition). Format: in vivo. The method, boiled down: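 Five L1 larvae per sprayed, dried cotton leaf disc on agar. Activity is counted when mortality, anti-feedant effect or growth inhibition exceeds the untreated sample at day 3.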

The subject of data set [3] is Plutella xylostella (Diamondback Moth). Description: Example B9: Plutella xylostella (diamondback moth), artificial diet, eggs, 96-well. The note with it: 216 h, application rate of 500 ppm, 9 days after infestation, read-out: control in mortality. Format: in vivo. How it is done:
96-well microtiter plates containing artificial diet were treated with aqueous test solutions, prepared from 10′000 ppm DMSO stock solutions, by a liquid handling robot. After drying, eggs (˜30 per well) were infested onto a netted lid which was suspended above the diet. The eggs hatch and L1 larvae move down to the diet. The samples were assessed for mortality 9 days after infestation.

Data set [4] has as its system Myzus persicae (Green Peach Aphid). Description: Example B6: Myzus persicae (green peach aphid) intrinsic activity, sucrose solution. Format: in vivo. The following applies: 120 h, test rate of 12 ppm, 5 days after infestation, intrinsic activity, read-out: mortality. The gist of the method:
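Compounds from 10′000 ppm DMSO stocks were mixed into sucrose solution in 24-well plates sealed with Parafilm. Aphid-infested pea seedlings were set on the membrane and the plate inverted so aphids fed through it. Mortality scored 5 days after infestation.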

The test system of data set [5] is Plutella xylostella (Diamond Back Moth). Description: Example B4: Plutella xylostella (diamond back moth), artificial diet, eggs, 24-well. The following applies: 192 h, application rate of 200 ppm, 8 days after infestation, eggs, read-out: control in at least one of the two categories (mortality or growth inhibition). The format is in vivo. Here is the method: 24-well microtiter plates with artificial diet were treated with aqueous test solutions prepared from 10′000 ppm DMSO stock solutions by pipetting. After drying, Plutella eggs were pipetted through a plastic stencil onto a gel blotting paper and the plate was closed with it. The samples were assessed for mortality and growth inhibition in comparison to untreated samples 8 days after infestation.

Data set [6] relates to Diabrotica Balteata (Corn Root Worm). Description: Example B1: Diabrotica balteata (corn root worm), maize sprouts sprayed, L2 larvae. The following applies: 96 h, application rate of 200 ppm, 4 days after infestation, L2 larvae, read-out: control in at least one of the two categories (mortality or growth inhibition). The format is in vivo. The method, boiled down: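 Read-out is mortality plus growth inhibition relative to untreated controls, assessed 4 days after infestation. Sprouts resting on agar are sprayed with aqueous solutions derived from 10′000 ppm DMSO stocks and left to dry before L2 larvae (6 to 10 per well) are added.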

Data set [7] relates to Myzus persicae (Green Peach Aphid). Description: Example B5: Myzus persicae (green peach aphid) feeding/contact activity, sunflower leaf discs. The format is in vivo. The following applies: foliar, 144 h, application rate of 200 ppm, 6 days after infestation. How it is done: Sunflower leaf discs were placed onto agar in a 24-well microtiter plate and sprayed with aqueous test solutions prepared from 10′000 ppm DMSO stock solutions. After drying, the leaf discs were infested with an aphid population of mixed ages. The samples were assessed for mortality 6 days after infestation.

By melting point is commonly meant the temperature, or range, at which the solid turns liquid. Broadly, the mortality is the percentage killed.

Take `C[C@@H](c1ncnn1-c1ccc(-c2nnn[nH]2)cn1)N(C)c1ncnc2c(C(F)(F)F)cc(Cl)cc12`: the melting point lay within 77 to 79 °C.

Regarding `C[C@H](Nc1c(C#N)cnc2c(C(F)(F)F)cc(C(F)(F)F)cc12)c1ncnn1-c1ncccn1`, the melting point was 203 to 205 °C.

As for `C[C@H](Nc1c(C#N)cnc2c(C(F)(F)F)cc(C(F)(F)F)cc12)c1ncnn1-c1ccc(C#N)cn1`, the melting point was 204 to 206 °C.

With `C[C@@H](c1ncnn1-c1ccc(-c2noc(C(F)(F)F)n2)cn1)N(C)c1ncnc2c(C(F)(F)F)cc(Cl)cc12`, the melting point lay in the range of 75 to 77 °C.

`CC(Nc1ncnc2c(Cl)cc(C(F)(F)F)cc12)c1ncnn1-c1ccc(OC(F)F)cn1` (stereo not drawn) had a melting point of 240 to 242 °C.

`C[C@@H](c1ncnn1-c1ccc(C(N)=O)cn1)N(C)c1ncnc2c(C(F)(F)F)cc(C(F)(F)F)cc12` yielded a melting point of 183 to 185 °C.

The compound `C[C@@H](c1ncnn1-c1ccc(C(N)=NO)cn1)N(C)c1ncnc2c(C(F)(F)F)cc(Cl)cc12` gave a melting point of 223 to 225 °C.

For the compound `CC(c1nccnc1-c1ccc(Br)cn1)N(C)c1ncnc2c(Cl)cc(C(F)(F)F)cc12` (stereo not drawn), the melting point lay in the range of 142 to 144 °C.

`CC(Nc1ncnc2c(Cl)cc(C(F)(F)F)cc12)c1nccnc1-c1ccc(Br)cn1` (stereo not drawn): the melting point lay in the range of 230 to 232 °C.

In turn, `CC(c1nccnc1-c1ccc(C#N)cn1)N(CC1CC1)c1ncnc2c(C(F)(F)F)cc(Cl)cc12` (stereo not drawn) had a melting point of 254 to 256 °C.

Turning to `CC(Nc1ncnc2c(Cl)c(F)c(Cl)cc12)c1ncnn1-c1ccc(C#N)cn1` (stereo not drawn), the melting point fell in the range of 215 to 225 °C.

With `CC(Nc1c(C#N)cnc2c(C(F)(F)F)cc(C(F)(F)F)cc12)c1ncnn1-c1ccc(C#N)cn1` (stereo not drawn), the melting point lay in the range of 261 to 263 °C.

Consider `CC(Nc1ncnc2c(C(F)(F)F)cc(Cl)cc12)c1ncnn1-c1ccc(Br)cn1` (stereo not drawn), for which the melting point lay within 274 to 276 °C.

`CC(c1ncnn1-c1ncccn1)N(CC1CC1)c1nc(Cl)nc2c(Br)cc(C(F)(F)F)cc12` (stereo not drawn): the melting point fell in the range of 87 to 89 °C.

On to `CC(c1ncnn1-c1ccc(C#N)cn1)N(C)c1ncnc2c(C(F)(F)F)cc(Br)cc12` (stereo not drawn) [P.52, 6-[5-[1-[[6-bromo-8-(trifluoromethyl)quinazolin-4-yl]-methyl-amino]ethyl]-1,2,4-triazol-1-yl]pyridine-3-carbonitrile], for which the percent control (mortality, anti-feedant effect or growth inhibition) at 200 ppm in data set [1] and in data set [2] was ≥ 80% each time. In data set [3], the mortality at 500 ppm is ≥ 80%. Further, in data set [4], the mortality at 12 ppm was ≥ 80%. Also, the percent control (mortality or growth inhibition) at 200 ppm in data set [5] and in data set [6] was ≥ 80% throughout. The mortality at 200 ppm in data set [7] was ≥ 80%.

As for `Cc1nc(NC(C)c2ncnn2-c2ccc(C#N)cn2)c2cc(C(F)(F)F)cc(C(F)(F)F)c2n1` (stereo not drawn) [P.60, 6-[5-[1-[[2-methyl-6,8-bis(trifluoromethyl)quinazolin-4-yl]amino]ethyl]-1,2,4-triazol-1-yl]pyridine-3-carbonitrile], in data set [1], the percent control (mortality, anti-feedant effect or growth inhibition) at 200 ppm was ≥ 80%. In data set [3], the mortality at 500 ppm was ≥ 80%. The percent control (mortality or growth inhibition) at 200 ppm in data set [5] is ≥ 80%.

As to `CC(Nc1ncnc2c(C(F)(F)F)cc(C(F)(F)F)cc12)c1ncnn1-c1ccc(C#N)cn1` (stereo not drawn) [P.61, 6-[5-[1-[[6,8-bis(trifluoromethyl)quina-zolin-4-yl]amino]ethyl]-1,2,4-triazol-1-yl]pyridine-3-carbonitrile], the percent control (mortality, anti-feedant effect or growth inhibition) at 200 ppm in data set [1] and in data set [2] was ≥ 80% each time. Also, the mortality at 500 ppm in data set [3] was ≥ 80%. Besides, the percent control (mortality or growth inhibition) at 200 ppm in data set [5] was ≥ 80%.

Consider `CC(Nc1ncnc2c(C(F)(F)F)cccc12)c1ncnn1-c1ccc(C#N)cn1` (stereo not drawn) [P.62, 6-[5-[1-[[8-(trifluoromethyl)quinazolin-4-yl]amino]ethyl]-1,2,4-triazol-1-yl]pyridine-3-carbonitrile], for which, in data set [1], the percent control (mortality, anti-feedant effect or growth inhibition) at 200 ppm was ≥ 80%. Moreover, the mortality at 500 ppm in data set [3] is ≥ 80%. Further, in data set [5], the percent control (mortality or growth inhibition) at 200 ppm is ≥ 80%.

On to `CC(Nc1ncnc2c(C(F)(F)F)cc(Br)cc12)c1ncnn1-c1ccc(C#N)cn1` (stereo not drawn) [P.63, 6-[5-[1-[[6-bromo-8-(trifluoromethyl)quinazolin-4-yl]amino]ethyl]-1,2,4-triazol-1-yl]pyridine-3-carbonitrile], for which the percent control (mortality, anti-feedant effect or growth inhibition) at 200 ppm in data set [1] and in data set [2] was ≥ 80% in each case. Also, in data set [3], the mortality at 500 ppm was ≥ 80%. Also, the percent control (mortality or growth inhibition) at 200 ppm in data set [5] was ≥ 80%.

Take `CC(Nc1ncnc2ccc(C(F)(F)F)cc12)c1ncnn1-c1ccc(C#N)cn1` (stereo not drawn) [P.64, 6-[5-[1-[[6-(trifluoromethyl)quinazolin-4-yl]amino]ethyl]-1,2,4-triazol-1-yl]pyridine-3-carbonitrile]: the percent control (mortality, anti-feedant effect or growth inhibition) at 200 ppm in data set [1] and in data set [2] was ≥ 80% in each case. The mortality at 500 ppm in data set [3] was ≥ 80%. In addition, the percent control (mortality or growth inhibition) at 200 ppm in data set [5] and in data set [6] was ≥ 80% throughout.

Consider `CC(Nc1ncnc2c(Cl)cc(Cl)cc12)c1ncnn1-c1ccc(C#N)cn1` (stereo not drawn) [P.65, 6-[5-[1-[(6,8-dichloroquinazolin-4-yl)amio]ethyl]-1,2,4-triazol-1-yl]pyridine-3-carbonitrile], for which, in data set [1], the percent control (mortality, anti-feedant effect or growth inhibition) at 200 ppm was ≥ 80%. Further, the mortality at 500 ppm in data set [3] is ≥ 80%. In addition, the percent control (mortality or growth inhibition) at 200 ppm in data set [5] is ≥ 80%.

Take `CC(c1ncnn1-c1ncccn1)N(C)c1ncnc2c(Cl)cc(Cl)cc12` (stereo not drawn) [P.66, 6,8-dichloro-N-methyl-N-[1-(2-pyrimidin-2-yl-1,2,4-triazol-3-yl)ethyl]quianzolin-4-amine]: the percent control (mortality, anti-feedant effect or growth inhibition) at 200 ppm in data set [1] was ≥ 80%. For the same compound, in data set [3], the mortality at 500 ppm was ≥ 80%. Moreover, the mortality at 12 ppm in data set [4] is ≥ 80%. Moreover, the percent control (mortality or growth inhibition) at 200 ppm in data set [5] and in data set [6] was ≥ 80% throughout.

`CC(Nc1ccnc2c(Cl)cc(Cl)cc12)c1ncnn1-c1ncccn1` (stereo not drawn) [P.67, 6,8-dichloro-N-[1-(2-pyrimidin-2-yl-1,2,4-triazol-3-yl)ethyl]quinolin-4-amine]: the percent control (mortality, anti-feedant effect or growth inhibition) at 200 ppm in data set [1] and in data set [2] was ≥ 80% in each case. Besides, the mortality at 500 ppm in data set [3] was ≥ 80%. Also, the percent control (mortality or growth inhibition) at 200 ppm in data set [5] and in data set [6] was ≥ 80% in each case.

With `CC(Nc1ncnc2c(Cl)cc(Cl)cc12)c1ncnn1-c1ncccn1` (stereo not drawn) [P.68, 6,8-dichloro-N-[1-(2-pyrimidin-2-yl-1,2,4-triazol-3-yl)ethyl]quinazolin-4-amine], the percent control (mortality, anti-feedant effect or growth inhibition) at 200 ppm in data set [1] and in data set [2] was ≥ 80% each time. Besides, the mortality at 500 ppm in data set [3] is ≥ 80%. Further, the percent control (mortality or growth inhibition) at 200 ppm in data set [5] and in data set [6] was ≥ 80% throughout.

Take `CC(Nc1nccc2c(C(F)(F)F)cccc12)c1ncnn1-c1ccccn1` (stereo not drawn) [P.69, N-[1-[2-(2-pyridyl)-1,2,4-triazol-3-yl]ethyl]-5-(trifluoromethyl)isoquino-lin-1-amine]: the mortality at 500 ppm in data set [3] was ≥ 80%.

`CC(Nc1ncnc2c(Cl)nccc12)c1nccnc1-n1nccn1` (stereo not drawn) [P.277, 8-chloro-N-[1-[3-(triazol-2-yl)pyrazin-2-yl]ethyl]pyrido[3,4-d]pyrimidin-4-amine]: the mortality at 500 ppm in data set [3] was ≥ 80%.
